Data from paper PMC11818416, “Discovery of TRPV4-Targeting Small Molecules with Anti-Influenza Effects Through Machine Learning and Experimental Validation” (International Journal of Molecular Sciences, 2025).
Where a name gives a salt, the structure may show the parent alone.

Columns and labels:
H1N1-UI182 = test: Mice infected with lethal H1N1-UI182 virus: body weight, survival, lung index, lung viral titer, pathology, viral proteins; type: in vivo, BALB/c mice; conditions: for rate of weight loss in virus-infected mice: 15-drug round, monitored 14 days (Figure 4A,B); for viral titers in the lung: Supplementary Figures S1C and S2C, comparable to the positive drugs; for survival rate of infected mice: 15-drug round (Figure 4C,D); for expression levels of viral proteins (NP, HA, M1) in lungs, WB: 15-drug round (Figure 4K,L); for lung injury (pathology): compared to other treatment groups and virus group, glecaprevir 30 mg/kg, everolimus 5 mg/kg (Figures S1, S2); for protection rate (survival of influenza-infected mice): H1N1-UI182 5 × LD50, BALB/c mice; for rate of weight loss at different concentrations / survival at different concentrations / dose dependence of the inhibitory effect on the virus (lung index, pulmonary viral load, pathological injury): oral
[1] = CCK-8 cytotoxicity test on MDCK cells; conditions: dog
Description: (§1) MDCK cells were inoculated in 96-well plates at 37 °C and 5% carbon dioxide for 12 h. The cell supernatant was discarded when the cell density reached 60–70%, and then different concentrations of drugs (0.1, 1, 10, 100 μM) were inoculated in the cell plates, moreover 3 repeat holes were set for each concentration gradient. After 48 h, cell viability was measured using cell counting kit-8 (Beyotime, C0039, CCK-8) depending on factory instructions. The absorbance at 450 nm for each pore was measured using an enzyme-linked immunosorbent plate reader, and half inhibitory concentration (CC50) value of cell viability were calculated by a nonlinear regression curve fitting analysis (Prism 8) of cell viability to the log10 conversion concentration value.

in vitro = conditions: dog
Description: as §1

[2] = tested on: NF-κB signaling pathway and inflammatory cytokines; test: Inflammatory cytokine expression after H1N1-UI182 infection by WB and RT-qPCR; type: in vivo, mouse; conditions: after H1N1-UI182 infection (Figure 6A-C)
H1N1-UI182 in 293T cells = type: cell-based, human
[3] = glecaprevir 10, 20, 40 mg/kg/day, everolimus 1, 5, 25 mg/kg/day
[4] = glecaprevir 10, 20, 40 mg/kg/day, everolimus 1, 5, 25 mg/kg/day, 5 dpi

For C[C@H]1O[C@H](O[C@H]2[C@H](O)[C@@H](O)[C@@H](O[C@H]3[C@H](O)[C@@H](O)C(O)O[C@@H]3CO)O[C@@H]2CO)[C@H](O)[C@@H](O)[C@@H]1N[C@H]1C=C(CO)[C@@H](O)[C@H](O)[C@H]1O (stereo partly drawn) [Acarbose], the “rate of weight loss in virus-infected mice” value (H1N1-UI182) was “significantly slowed the rate of weight loss” and the CC50 at 48 h ([1]; MDCK cells) was greater than 100 µM.

With CSCCNc1nc(SCCC(F)(F)F)nc2c1ncn2[C@@H]1O[C@H](COP(=O)(O)OP(=O)(O)C(Cl)(Cl)P(=O)(O)O)[C@@H](O)[C@H]1O [Cangrelor] the “rate of weight loss in virus-infected mice” value (H1N1-UI182) was “significantly slowed the rate of weight loss” and the CC50 at 48 h (in vitro) was greater than 100 µM.

In the case of CC(/C=C/C=C(\C)C(=O)O[C@@H]1O[C@H](CO[C@@H]2O[C@H](CO)[C@@H](O)[C@H](O)[C@H]2O)[C@@H](O)[C@H](O)[C@H]1O)=C\C=C\C=C(C)\C=C\C=C(/C)C(=O)O[C@@H]1O[C@H](CO[C@@H]2O[C@H](CO)[C@@H](O)[C@H](O)[C@H]2O)[C@@H](O)[C@H](O)[C@H]1O [Crocin], the CC50 at 48 h ([1]; MDCK cells) is reported as greater than 100 µM.

For CO[C@H]1C[C@@H]2CC[C@@H](C)[C@@](O)(O2)C(=O)C(=O)N2CCCC[C@H]2C(=O)O[C@H]([C@H](C)C[C@@H]2CC[C@@H](OCCO)[C@H](OC)C2)CC(=O)[C@H](C)/C=C(\C)[C@@H](O)[C@@H](OC)C(=O)[C@H](C)C[C@H](C)/C=C/C=C/C=C/1C [Everolimus], the “viral titers in the lung” value (H1N1-UI182; 5 dpi) was “significantly reduced viral titers”, the “survival rate of infected mice” value (H1N1-UI182) was “significantly improved the survival rate” and the “expression levels of viral proteins (NP, HA, M1) in lungs, WB” value (H1N1-UI182) was “attenuated obviously”. For the same compound, the “rate of weight loss in virus-infected mice” value (H1N1-UI182) was “significantly slowed the rate of weight loss”, the “viral load in the lungs” value (H1N1-UI182; 5 days after infection, compared to the viral group (Figure 4G-J)) was “evidently lower” and the “lung injury (pathology)” value (H1N1-UI182; 5 days after infection) was “noticeable signs of lung improvement”. The “protection rate (survival of influenza-infected mice)” value (H1N1-UI182) was 100%, the “pulmonary viral load at different concentrations” value (H1N1-UI182; everolimus 1, 5, 25 mg/kg/day, 5 dpi (Figure 5H)) was “decreased notably with the increase of drug concentration” and the “rate of weight loss at different concentrations” value (H1N1-UI182; [3]) was “observably retarded the rate of weight loss”. The “survival at different concentrations” value (H1N1-UI182; [3]) was “improved survival in a concentration-dependent manner”, the “dose dependence of the inhibitory effect on the virus (lung index, pulmonary viral load, pathological injury)” value (H1N1-UI182; [4]) was “meaningfully dose-dependent” and the “expression levels of phosphorylated NF-κB, IL-6, IL-10, IFN-β, TNF-α (WB)” value [2] was “decreased”. For the same compound, the “expression level of NP protein in normal 293T cells (WB)” value (H1N1-UI182 in 293T cells) was “higher in normal cells”, the “expression of NP protein in TRPV4−/− 293T cells (WB)” value (H1N1-UI182 in 293T cells) was “significantly decreased” and the CC50 at 48 h (in vitro) was 78.2 µM.

In the case of Cc1cc2nc3c(=O)[nH]c(=O)nc-3n(C[C@H](O)[C@H](O)[C@H](O)COP(=O)(O)OP(=O)(O)OC[C@H]3O[C@@H](n4cnc5c(N)ncnc54)[C@H](O)[C@@H]3O)c2cc1C [FAD], the CC50 (MDCK cells) is reported as less than 50 µM.

In the case of CC(C)(C)[C@@H]1NC(=O)O[C@@H]2CCC[C@H]2OC/C=C/C(F)(F)c2nc3ccccc3nc2O[C@@H]2C[C@@H](C(=O)N[C@]3(C(=O)NS(=O)(=O)C4(C)CC4)C[C@H]3C(F)F)N(C2)C1=O [Glecaprevir], the “viral titers in the lung” value (H1N1-UI182; 5 dpi) is reported as “significantly reduced viral titers”, the “survival rate of infected mice” value (H1N1-UI182) is reported as “significantly improved the survival rate” and the “expression levels of viral proteins (NP, HA, M1) in lungs, WB” value (H1N1-UI182) is reported as “attenuated obviously”. The “rate of weight loss in virus-infected mice” value (H1N1-UI182) was “significantly slowed the rate of weight loss”, the “lung injury (pathology)” value (H1N1-UI182; 5 days after infection) was “noticeable signs of lung improvement” and the “protection rate (survival of influenza-infected mice)” value (H1N1-UI182) was 80%. The “expression of viral protein in mouse lungs at higher doses, WB” value (H1N1-UI182; glecaprevir 10, 20, 40 mg/kg/day (Figure 5K)) was “did not effectively inhibit the expression of viral protein at higher doses”, the “lung lesions at higher concentrations” value (H1N1-UI182; glecaprevir 10, 20, 40 mg/kg/day, 5 dpi, H&E (Figure 5I)) was “higher concentrations did not alter the lung lesions” and the “rate of weight loss at different concentrations” value (H1N1-UI182; [3]) was “observably retarded the rate of weight loss”. For the same compound, the “survival at different concentrations” value (H1N1-UI182; [3]) was “improved survival in a concentration-dependent manner”, the “dose dependence of the inhibitory effect on the virus (lung index, pulmonary viral load, pathological injury)” value (H1N1-UI182; [4]) was “did not display concentration-dependent characteristics” and the “expression levels of phosphorylated NF-κB, IL-6, IL-10, IFN-β, TNF-α (WB)” value [2] was “decreased”. For the same compound, the CC50 at 48 h (in vitro) was 77.3 µM.

With CNCC(=O)OCc1cccnc1N(C)C(=O)OC(C)[n+]1cnn(C[C@](O)(c2cc(F)ccc2F)[C@@H](C)c2nc(-c3ccc(C#N)cc3)cs2)c1 (stereo partly drawn) [Isavuconazonium] the CC50 at 48 h ([1]; MDCK cells) was greater than 100 µM.

CN[C@@H]1[C@@H](O)[C@@H](O[C@@H]2[C@@H](O)[C@H](O[C@H]3O[C@H](CN)[C@@H](O)[C@H](O)[C@H]3O)[C@@H](N)C[C@H]2NC(=O)[C@@H](O)CN)OC[C@]1(C)O [Isepamicin] showed a CC50 at 48 h ([1]; MDCK cells) greater than 100 µM.

COC(=O)N[C@H](C(=O)N1CCC[C@H]1C(=O)Nc1ccc([C@@H]2CC[C@@H](c3ccc(NC(=O)[C@@H]4CCCN4C(=O)[C@@H](NC(=O)OC)C(C)C)cc3)N2c2ccc(C(C)(C)C)cc2)cc1)C(C)C [Ombitasvir] showed a CC50 at 48 h [1] greater than 100 µM.

For NC[C@@H]1O[C@H](O[C@H]2[C@@H](O)[C@H](O[C@@H]3[C@@H](O)[C@H](N)C[C@H](N)[C@H]3O[C@H]3O[C@H](CO)[C@@H](O)[C@H](O)[C@H]3N)O[C@@H]2CO)[C@H](N)[C@@H](O)[C@@H]1O [Paromomycin, Paromomycin sulfate], the CC50 at 48 h ([1]; MDCK cells) was greater than 100 µM.

With CCC[C@H](NC(=O)[C@@H]1[C@H]2CCC[C@H]2CN1C(=O)[C@@H](NC(=O)[C@@H](NC(=O)c1cnccn1)C1CCCCC1)C(C)(C)C)C(=O)C(=O)NC1CC1 [Telaprevir] the CC50 at 48 h (in vitro) was greater than 100 µM.

NC[C@H]1O[C@H](O[C@H]2[C@H](O)[C@@H](O[C@H]3O[C@H](CO)[C@@H](O)[C@H](N)[C@H]3O)[C@H](N)C[C@@H]2N)[C@H](N)C[C@@H]1O [Tobramycin] gave a CC50 at 48 h ([1]; MDCK cells) greater than 100 µM.

C[C@@H]1O[C@@H](OC[C@H]2O[C@@H](Oc3c(-c4ccc(OCCO)c(OCCO)c4)oc4cc(OCCO)cc(O)c4c3=O)[C@H](O)[C@@H](O)[C@@H]2O)[C@H](O)[C@H](O)[C@H]1O [Troxerutin] showed a CC50 at 48 h ([1]; MDCK cells) of less than 50 µM.

Compound CCCCC(=O)OCC(=O)[C@]1(O)Cc2c(O)c3c(c(O)c2[C@@H](O[C@H]2C[C@H](NC(=O)C(F)(F)F)[C@H](O)[C@H](C)O2)C1)C(=O)c1c(OC)cccc1C3=O [Valrubicin] has a CC50 at 48 h ([1]; MDCK cells) of less than 50 µM.
